Assay results: PMC7923269 (Journal of Personalized Medicine, 2021)
Read-outs that look alike come from different tables or passages of the source.

Key:
CYP3A [1] = conditions: for Inhibition ratio of urinary 1β-OH-DCA excretion: after/before inhibition by fluvoxamine + voriconazole; for Urinary 1β-OH-DCA excretion: geometric mean (95% CI)
CYP3A [2] = experiment: Oral midazolam pharmacokinetics (CYP3A phenotyping) in healthy volunteers at baseline, after inhibition and after induction; type: in vivo, human; conditions: MDZ 1 mg oral; for Cmax: human, plasma, po
Procedure: Healthy volunteers were administered, as part of the Geneva cocktail, MDZ 1 mg for CYP3A phenotyping at baseline (control session). During the inhibition session, participants received MDZ 1 mg after fluvoxamine intake (50 mg, two doses 12 h and 2 h before MDZ administration) and voriconazole intake (400 mg, one dose 2 h before MDZ administration). MDZ 1 mg was also received after a pretreatment with the inducer rifampicin (600 mg, one tablet every evening for seven days until the evening before administration of MDZ) (induction session). Urine samples were collected over 8 h after MDZ administration at each session. Venous blood samples (3 mL) were collected before (time 0) as well as 0.5, 1, 2, 3, 4, 6, and 8 h after probe drug administration. Breakfast and lunch were served approximately 1 h and 4 h, respectively, after the blood sampling. The trial is registered at http://www.clinicaltrials.gov (NCT01731067).
Analyses of MDZ and OH-MDZ in plasma were performed using a single reverse-phase high-performance liquid chromatography coupled with tandem mass spectrometry (LC-MS/MS) method as described in the study of Bosilkosvka et al..
The pharmacokinetic parameters of MDZ were obtained by standard noncompartmental methods using WinNonlin version 6.2.1 (Pharsight, Mountain View, CA, USA).
Inhibition ratios were calculated as follows:(1) Inhibition ratio = Metricafter inhibition/Metricbefore inhibition.
Similarly, induction ratios were calculated as follows:(3) Induction ratio = Metricafter induction/Metricbefore induction.

CYP3A [3] = test system: CYP3A; set-up: method as in PMID 19701237; conditions: after clarithromycin 250 mg twice daily for five days vs baseline; p = 0.04; cited from earlier work
[4] = induction session (rifampicin 600 mg, 7 days)
[5] = inhibition session (fluvoxamine + voriconazole)

C[C@H](CCC(=O)O)[C@H]1CC[C@H]2[C@@H]3CC[C@@H]4C[C@H](O)C[C@@H](O)[C@]4(C)[C@H]3C[C@H](O)[C@]12C [1β-OH-DCA, 1β-hydroxy-deoxycholic acid]
Inhibition ratio of urinary 1β-OH-DCA excretion (CYP3A [1]): 0.62 | Inhibition ratio of urinary 1β-OH-DCA excretion (CYP3A [1]; listed as 1β-OH -DCA): 0.62 (0.26–1.5) | Urinary 1β-OH-DCA excretion (CYP3A [1]; baseline): 15.5 (5.8–41.3) µg/8 h | Urinary 1β-OH-DCA excretion (CYP3A [1]; [4]): 61.8 (30.9–123.3) µg/8 h | Urinary 1β-OH-DCA excretion (CYP3A [1]; [5]): 9.6 (4.1–22.5) µg/8 h

Cc1ncc2n1-c1ccc(Cl)cc1C(c1ccccc1F)=NC2 [MDZ, midazolam]
Oral MDZ CL (CYP3A [2]; baseline, geometric mean (95% CI)): 143.0 (107.1–191.0) L/h | Oral MDZ CL (CYP3A [2]; [4]): 3296 (2351–4622) L/h | Oral MDZ CL (CYP3A [2]; [5]): 24.0 (19.7–29.3) L/h | Cmax (CYP3A [2]; 1 mg, baseline): 3.1 ng/mL | Cmax (CYP3A [2]; [4]): 0.15 ng/mL | Cmax (CYP3A [2]; [5]): 11.7 ng/mL

C[C@]12CCC(=O)C=C1CC[C@@H]1[C@@H]2[C@@H](O)C[C@@]2(C)[C@H]1CC[C@]2(O)C(=O)CO [cortisol]
Increase in area under the concentration-time curve of plasma endogenous cortisol (CYP3A [3]): 19%
